Assay results: US9896481B2, “Modified mini-hepcidin peptides and methods of using thereof” (priority 2011, dated 2018)
Read-outs that look alike come from different tables or passages of the source. Starred links: 1 amine or outer side, 2 acyl side, 3 side chain; linkers in the order of their positions; H or OH if unused. Positions of bridges follow the written chain, without caps; N, C: chain ends. Non-standard residues stand in square brackets, D forms with d. Residues, ends and D or L forms follow the SMILES beside them. No end group written: not given here. *: point of attachment. Ursodeoxycholyl = C[C@H](CCC(=O)*)[C@H]1CC[C@H]2[C@@H]3[C@@H](O)C[C@@H]4C[C@H](O)CC[C@]4(C)[C@H]3CC[C@]12C; PEG12 = NCCOCCOCCOCCOCCOCCOCCOCCOCCOCCOCCOCCOCCC(=O)O; X1 = O=C(C[C@H](N[*:1])C(c1ccccc1)c1ccccc1)[*:2]; dDip = N[C@@H](C(=O)O)C(c1ccccc1)c1ccccc1; Oic = O=C(O)[C@@H]1C[C@@H]2CCCC[C@@H]2N1; Dip = N[C@H](C(=O)O)C(c1ccccc1)c1ccccc1; Palmitoyl = CCCCCCCCCCCCCCCC(=O)*; X2 = O=C(C1CCC(CN[*:1])CC1)[*:2]; Cysteamide = C(CS[*:3])N[*:1]; Chg = N[C@H](C(=O)O)C1CCCCC1; Phg = N[C@H](C(=O)O)c1ccccc1; Tle = CC(C)(C)[C@H](N)C(=O)O; Dap = NC[C@H](N)C(=O)O; Inp = O=C(O)C1CCNCC1

How the values were obtained:
[1] = test system: C57/Bl6J mice; test: Serum iron assay in mice on low-iron diet, 4 hours after peptide; type: in vivo, mouse; design: key to active in vivo: *active in vivo
Protocol: The decrease in serum iron after peptide administration is the principal measure of hepcidin activity. Thus, as provided herein, the hepcidin activity of selected peptides of the present invention were assayed in vivo by measuring serum iron in test subjects. Briefly, C57/Bl6J mice were maintained on NIH 31 rodent diet (333 parts per million (ppm) iron; Harlan Teklad, Indianapolis, Ind.). Two weeks before the experiment, the mice were switched to a diet containing about 2-4 ppm iron (Harlan Teklad, Indianapolis, Ind.) in order to suppress endogenous hepcidin. Peptide stocks were diluted to desired concentrations in sterile phosphate buffered saline (PBS) or other diluents as described next. Mice were subjected to the following treatments: (a) Injected intraperitoneally either with 100 μl PBS (control) or with 50 μg peptide in 100 μl PBS; (b) Injected with 100 μl of peptide (or PBS) mixed with 500 μg empty liposomes COATSOME EL series (NOF, Tokyo, Japan) (prepared as per manufacturer's recommendation); (c) Injected with 100 μl peptides (or PBS) solubilized with SL220 solubilization agent (NOF, Tokyo, Japan); (d) Gavaged with 250 μl of peptide (or PBS) in 1× solvent (Cremophor EL (Sigma)/ethanol/PBS; (12.5:12.5:75)). Mice were sacrificed 4 hours later, blood was collected by cardiac puncture, and serum was separated using MICROTAINER tubes (Becton Dickinson, Franklin Lakes, N.J.). Serum iron was determined by using a colorimetric assay (Diagnostic Chemicals, Oxford, Conn.), which was modified for the microplate format so that 10 μl serum was used per measurement. The results were expressed as the percentage of decrease in serum iron when compared with the average value of serum iron levels in PBS-treated mice.

[2] = target: T1, ferroportin tagged at the C-terminus with green fluorescent protein (Fpn-GFP) (Mus musculus, UniProt Q9JHI9); test: Flow cytometry of ferroportin-GFP degradation in ECR293/Fpn-GFP cells; type: cell-based; conditions: for DC50: read-out: EC50 (the source's name)
T1 construct: expressed in transfected cells; host or cells: ECR293/Fpn-GFP (stably transfected, ponasterone-inducible)
T1 sequence (Q9JHI9 1-570): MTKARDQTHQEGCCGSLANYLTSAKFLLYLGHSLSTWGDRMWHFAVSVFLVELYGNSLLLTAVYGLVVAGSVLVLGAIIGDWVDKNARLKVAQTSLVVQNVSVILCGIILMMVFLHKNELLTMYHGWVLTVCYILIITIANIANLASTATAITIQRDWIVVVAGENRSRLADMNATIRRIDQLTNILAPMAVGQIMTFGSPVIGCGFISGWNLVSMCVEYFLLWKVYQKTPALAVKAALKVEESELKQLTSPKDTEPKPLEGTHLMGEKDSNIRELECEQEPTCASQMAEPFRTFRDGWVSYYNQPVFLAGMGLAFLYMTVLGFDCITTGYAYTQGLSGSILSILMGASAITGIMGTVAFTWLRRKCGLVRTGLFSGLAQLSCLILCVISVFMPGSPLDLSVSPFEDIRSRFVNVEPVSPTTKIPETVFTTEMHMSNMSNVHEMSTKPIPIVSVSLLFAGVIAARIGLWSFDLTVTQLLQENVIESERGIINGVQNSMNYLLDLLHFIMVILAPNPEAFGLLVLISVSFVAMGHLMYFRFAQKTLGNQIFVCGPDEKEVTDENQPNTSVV
Protocol: In vitro activity may be measured by the dose-dependent loss of fluorescence of cells engineered to display ferroportin fused to green fluorescent protein as in Nemeth et al. (2006) Blood 107:328-33. Aliquots of cells are incubated for 24 hours with graded concentrations of a reference preparation of Hep25 or a mini-hepcidin. As provided herein, the EC50 values are provided as the concentration of a given compound (e.g. peptide) that elicits 50% of the maximal loss of fluorescence generated by the reference Hep25 preparation.
Mutational studies indicate that C326, the cysteine residue at position 326 of human ferroportin, is the critical residue involved in binding hepcidin. Thus, various N-terminal fragments of Hep25 containing a thiol, i.e. Hep 4-7, Hep3-7, Hep3-8, Hep3-9, Hep1-7, Hep1-8, Hep1-9, and Hep1-10 C7A, were chemically synthesized, refolded and their activities relative to Hep25 were assayed using flow-cytometric quantitation of the ferroportin-GFP degradation, iron efflux estimation based on measurements of cellular ferritin, and radioisotopic iron efflux studies.
The activity of peptides of the present invention was measured by flow cytometry as previously described. See Nemeth et al. (2006) Blood 107:328-333, which is herein incorporated by reference. ECR293/Fpn-GFP, a cell line stably transfected with a ponasterone-inducible ferroportin construct tagged at the C-terminus with green fluorescent protein was used. See Nemeth et al. (2004) Science 306:2090-2093, which is herein incorporated by reference. Briefly, the cells were plated on poly-D-lysine coated plates in the presence of 20 μM FAC, with or without 10 μM ponasterone. After 24 hours, ponasterone was washed off, and cells were treated with peptides for 24 hours. Cells were then trypsinized and resuspended at 1×10^6 cells/ml, and the intensity of green fluorescence was analyzed by flow cytometry. Flow cytometry was performed on FAC SCAN (fluorescence activated cell scanner) Analytic Flow Cytometer (Becton Dickinson, San Jose, Calif.) with […] version 3.3 software (Becton Dickinson). Cells not induced with ponasterone to express Fpn-GFP were used to establish a gate to exclude background fluorescence. Cells induced with ponasterone, but not treated with any peptides, were used as the positive control. Each peptide was tested over the range of concentrations (0, 0.01, 0.03, 0.1, 0.3, 1, 3 and 10 μM). Each peptide treatment was repeated independently 3 to 6 times. For each concentration of peptide, the results were expressed as a fraction of the maximal activity (FHep25) of Hep25 (in the dose range 0.01-10 μM), according to the formula 1−((Fx−FHep25)/(Funtreated−FHep25)), where F was the mean of the gated green fluorescence and x was the peptide.

[3] = ferroportin-GFP internalization, FIG. 3
[4] = Table 1, 24 h peptide treatment, 50% of maximal loss of fluorescence by Hep25

## CC[C@@H](C)[C@@H](NC(=O)[C@@H](Cc1ccccc1)NC(=O)CCOCCOCCOCCOCCOCCOCCOCCOCCOCCOCCOCCOCCNC(=O)[C@@H](CC(=O)O)NC(=O)CC[C@@H](C)[C@H]1CC[C@H]2[C@@H]3[C@@H](O)C[C@@H]4C[C@H](O)CC[C@]4(C)[C@H]3CC[C@]12C)C(=O)N[C@H](CS)C(=O)N[C@@H](C(=O)N1CCC[C@@H]1C(=O)N[C@H](Cc1ccccc1)C(=O)N[C@H](Cc1c[nH]cn1)C(=O)N[C@@H](C(=O)N[C@H](CC(=O)O)C(N)=O)[C@H](C)O)[C@H](C)CC [PR24] (Ursodeoxycholyl-[dD][PEG12][dF][dI][dC][dI][dP][dF][dH][dT][dD]-NH2)
[1]; asterisk at the EC50 value of Table 1
  active in vivo: *

## C[C@@H](O)[C@H](NC(=O)[C@@H](N)CC(=O)O)C(=O)N[C@@H](Cc1c[nH]cn1)C(=O)N[C@H](C(=O)N1CCC[C@H]1C(=O)N[C@@H](CS)C(=O)N[C@@H](CS)C(=O)N[C@@H](CS)C(=O)N[C@H](C(N)=O)C(c1ccccc1)c1ccccc1)C(c1ccccc1)c1ccccc1 [PR46] (H-DTH[Dip]PCCC[Dip]-NH2; N-terminus assumed)
[2]; Table 1, 24 h peptide treatment, 50% of maximal loss of fluorescence by Hep25, read-out: EC50
  EC50: 80 nM

## CC[C@H](C)[C@H](NC(=O)[C@H](CS)NC(=O)[C@@H](NC(=O)[C@@H]1CCCN1C(=O)[C@@H](NC(=O)[C@@H](N)CC(=O)O)C(c1ccccc1)c1ccccc1)[C@@H](C)CC)C(=O)N[C@@H](Cc1ccccc1)C(N)=O [PR40] (H-D[Dip]PICIF-NH2)
[2]; read-out: EC50, Table 1, 24 h peptide treatment, 50% of maximal loss of fluorescence by Hep25
  EC50: 70 nM

## CC[C@H](C)[C@H](NC(=O)[C@H](CS)NC(=O)[C@@H](NC(=O)[C@@H]1CCCN1C(=O)[C@H](Cc1ccccc1)NC(=O)[C@H](Cc1c[nH]cn1)NC(=O)[C@@H](NC(=O)[C@@H](N)CC(=O)O)[C@@H](C)O)[C@@H](C)CC)C(=O)N[C@@H](Cc1ccccc1)C(N)=O [Hep9]
[1]; 50 μg per mouse i.p. in PBS, after 4 hours
  serum iron: did not result in a serum iron decrease

## N=C(N)NCCC[C@@H]1NC(=O)C2CCC(CC2)CNC(=O)[C@@H](C(c2ccccc2)c2ccccc2)NC(=O)[C@H]2CCCN2C(=O)[C@@H](N)CSSCCNC(=O)[C@H](C(c2ccccc2)c2ccccc2)NC(=O)C2CCN(CC2)C(=O)C2CCC(CC2)CNC1=O [PR-3] (H-C[dP][dDip][X2]R[X2][Inp][Dip]-Cysteamide; disulfide 1-C)
[2]; read-out: EC50
  EC50: 1000 nM

## DTHFPIAIFC-NH2 [Hep10]
[2]; FIGS. 1-4
  hepcidin activity relative to Hep25 (in words): quite active
[2]; [3]
  potency relative to Hep25 on a mass basis, times less potent: about 4 times
  potency relative to Hep25 on a molar basis, times less potent: about 10 times

## N=C(N)NCCC[C@@H]1NC(=O)C2CCC(CC2)CNC(=O)[C@@H](C(c2ccccc2)c2ccccc2)NC(=O)[C@@H]2CCCN2C(=O)[C@@H](N)CSSCCNC(=O)[C@H](C(c2ccccc2)c2ccccc2)NC(=O)C2CCN(CC2)C(=O)C2CCC(CC2)CNC1=O [PR-2] (H-CP[dDip][X2]R[X2][Inp][Dip]-Cysteamide; disulfide 1-C)
[2]; read-out: EC50
  EC50: 2000 nM

## CC[C@H](C)[C@H](NC(=O)[C@H](CS)NC(=O)[C@@H](NC(=O)[C@@H]1CCCN1C(=O)C[C@H](NC(=O)[C@H](Cc1c[nH]cn1)NC(=O)[C@@H](NC(=O)[C@@H](N)CC(=O)O)[C@@H](C)O)C(c1ccccc1)c1ccccc1)[C@@H](C)CC)C(=O)N[C@@H](Cc1ccccc1)C(N)=O [F4bhDpa] (H-DTH[X1]PICIF-NH2; N-terminus assumed)
[2]; [4]
  DC50: 80 nM

## CCCCCCCCCCCCCCCC(=O)NC[C@H](NC(=O)CCCCCCCCCCCCCCC)C(=O)NCCOCCOCCOCCOCCOCCOCCOCCOCCOCCOCCOCCOCCC(=O)N[C@H](Cc1ccccc1)C(=O)N[C@@H](C(=O)N[C@H](CS)C(=O)N[C@@H](C(=O)N1CCC[C@@H]1C(=O)N[C@H](Cc1ccccc1)C(=O)N[C@H](Cc1c[nH]cn1)C(=O)N[C@@H](C(=O)N[C@H](CC(=O)O)C(N)=O)[C@H](C)O)[C@H](C)CC)[C@H](C)CC [PR28] (Palmitoyl-[Dap](Palmitoyl)[PEG12][dF][dI][dC][dI][dP][dF][dH][dT][dD]-NH2)
[1]; 20 nmoles i.p. in liposomal solution
  serum iron: lesser ability to decrease serum iron than PR27

## CC(C)(C)[C@H](NC(=O)[C@@H](N)CC(=O)O)C(=O)N[C@@H](Cc1c[nH]cn1)C(=O)N[C@H](C(=O)N1[C@H](C(=O)N[C@H](C(=O)N[C@@H](CS)C(=O)N[C@H](C(=O)N[C@@H](Cc2ccccc2)C(N)=O)C2CCCCC2)C2CCCCC2)C[C@@H]2CCCC[C@@H]21)c1ccccc1 [PR10] (H-D[Tle]H[Phg][Oic][Chg]C[Chg]F-NH2)
[2]; [4]
  DC50: > 3000 nM

## CCCCCCCCCCCCCCCC(=O)NCCOCCOCCOCCOCCOCCOCCOCCOCCOCCOCCOCCOCCC(=O)N[C@H](Cc1ccccc1)C(=O)N[C@@H](C(=O)N[C@H](CS)C(=O)N[C@@H](C(=O)N1CCC[C@@H]1C(=O)N[C@@H](C(=O)N[C@H](Cc1c[nH]cn1)C(=O)N[C@@H](C(=O)N[C@H](CC(=O)O)C(N)=O)[C@H](C)O)C(c1ccccc1)c1ccccc1)[C@H](C)CC)[C@H](C)CC [PR47, R4-F-I-C-I-P-Dpa-H-T-D] ({Palmitoyl-PEG12}-[dF][dI][dC][dI][dP][dDip][dH][dT][dD]-NH2)
[2]; read-out: EC50 (nM) in vitro, Table 3
  EC50: 50 nM

## N=C(N)NCCC[C@@H]1NC(=O)C2CCC(CC2)CNC(=O)[C@@H](C(c2ccccc2)c2ccccc2)NC(=O)C2CCN(CC2)C(=O)[C@@H](N)CSSCCNC(=O)[C@H](C(c2ccccc2)c2ccccc2)NC(=O)C2CCN(CC2)C(=O)C2CCC(CC2)CNC1=O [PR-1]
[2]; read-out: EC50
  EC50: 1500 nM

## CC(C)(C)[C@H](NC(=O)[C@@H](N)CC(=O)O)C(=O)N[C@@H](Cc1c[nH]cn1)C(=O)N1CCC[C@H]1C(=O)N1[C@H](C(=O)N[C@H](C(=O)N[C@@H](CS)C(=O)N[C@H](C(=O)N[C@@H](Cc2ccccc2)C(N)=O)C2CCCCC2)C2CCCCC2)C[C@@H]2CCCC[C@@H]21 [PR11] (H-D[Tle]HP[Oic][Chg]C[Chg]F-NH2)
[2]; [4]
  DC50: > 3000 nM
